From patent publication US20210330756A1, “Acetylation of Miro1” (University of South Carolina, priority 2020, published 2021)

Assays:
[1] = system: adult dorsal root ganglion (DRG) neurons; assay: Neurite length of dissociated adult DRG neurons cultured on laminin; type: cell-based, rat; conditions: 10 μM, 1 h
Protocol: HDAC6 inhibition increases growth cone size of sensory axons. Given our previous work showing that HDAC6 inhibition allows axons to grow on MAG and CSPG substrates (Rivieccio et al., 2009; Butler et al., 2010), we asked how inhibition of HDAC6 alters axon growth in cultures of adult dorsal root ganglion (DRG) neurons. […] (A) Quantification of neurite length for dissociated DRGs cultured on laminin with addition of HDAC6 inhibitor TubA (10 μm) versus vehicle control (DMSO) over 1 h is shown as average fold-change relative to vehicle±SEM (n≥95 neurons across three independent experiments; NS by one-way ANOVA with Bonferroni post hoc). (B and C) show representative DIC images of distal axons from DRG neurons cultured as in A are shown (B). 1-h TubA treatment appears to increase growth cone size. Analyses of growth cone area across multiple experiments show a significant increase in area after TubA treatment (C). Values are average fold-change±SEM (n≥26 neurons over at least three culture preparations; ***, P≤0.005 by one-way ANOVA with Bonferroni post hoc; scale bar=5 μm; 40×/1.3 NA objective used). […] Prominent HDAC6 signals are seen in distal axons and growth cones (arrows) regardless of TubA exposure. […]
(§1) NF-stained cultures were used for neurite growth analyses. […] The growth cone area was measured using ImageJ software from these annotated DIC images. […]

adult DRG neurons = assay: Axon growth of DRG neurons on laminin or substrate-bound aggrecan (CSPG); type: cell-based, rat; conditions: 10 μM TubA, 24 h
Source text: MAG and CSPGs are more often tested as surface-bound substrates than with the bath applications used here. Thus, we tested whether bath application of growth inhibitors would cause growth cone retraction in a manner similar to surface-bound inhibitors. […] RhoA activation is a well-known downstream mediator for the growth-inhibitory effects of both MAG and CSPGs (Fujita and Yamashita, 2014), so we tested whether the RhoA/ROCK pathway contributes to the impact of aggregan on mitochondria distribution in growth cones.
MAG or Aggrecan exposures were performed as bath application or on coated substrates. For bath application, dissociated DRGs were cultured for 48 h and treated with 25 μg/ml of MAG-Fc (R&D Systems; 538-MG), 25 μg/ml Fc control (R&D Systems; 110-HG), or 10 μg/ml of Aggrecan (Sigma-Aldrich; A1960) for 4 h. Cultures were pretreated with either Ca^2+ chelator BAPTA-AM (3 μM; Sigma-Aldrich; A1076), ROCK inhibitor Y27632 (10 μM; Sigma-Aldrich; SCM075), HDAC6 inhibitor TubA (10 μM; R&D Systems; 6270), Thapsigargin (1 μM; Sigma-Aldrich; T9033), Rho Activator II (1 μg/ml; Cytoskeleton; CNO3), or equivalent volume DMSO 30 min before MAG-Fc, Aggrecan, or controls. […]
as §1

## CN1CCc2c(c3ccccc3n2Cc2ccc(C(=O)NO)cc2)C1 [TubA, tubastatin]
[1]
  neurite length vs vehicle: did not significantly affect neurite length
Adult DRG neurons
  effect on attenuation of axon growth by substrate-bound aggrecan: prevented by TubA exposure
